Laboratory results as given in patent US12172946B2, “Compound containing diphenylmethane structure and use thereof” (GUANGZHOU TROJAN PHARMATEC LTD., priority 2019, dated 2024).

Experiment: solubility of the compound in common solvents
Type: physicochemical
Settings: 25-30° C.; for solubility in DMF: N,N-dimethylformamide; for solubility in i-PrOAc: isopropyl acetate; for solubility in MTBE: methyl tert-butyl ether
Description: The solubility of the compound of the present invention in common solvents was investigated (25-30° C.), and the results are shown in Table 1. It can be seen from Table 1 that the compound of the present invention has good solubility in all of heptane, isopropyl acetate (i-PrOAc), methyl tert-butyl ether (MTBE) and N,N-dimethylformamide (DMF), and particularly, the solubility in N,N-dimethylformamide is much higher than Comparative Examples.

SMILES	solubility in DMSO [%]	solubility in MeOH [%]	solubility in DMF [%]	solubility in Heptane [%]	solubility in i-PrOAc [%]	solubility in MTBE [%]
CCCCCCCCCCCCCOc1cc(C(=O)NCCOCCOc2ccc(C(O)(c3ccccc3)c3ccccc3)cc2)cc(OCCCCCCCCCCCCC)c1OCCCCCCCCCCCCC [DPA-032]	<1	<1	>40	>10	>10	>10
CCCCCCCCCCCCCOc1cc(C(=O)NCCOCCOc2ccc(C(O)(c3ccccc3)c3ccccc3Cl)cc2)cc(OCCCCCCCCCCCCC)c1OCCCCCCCCCCCCC (stereo not drawn) [DPA-033]	<1	<1	>40	>30	>50	>50
CCCCCCCCCCCCCOc1cc(C(=O)NCCOCCOc2ccc(C(O)(c3ccccc3)c3ccc(Cl)cc3)cc2)cc(OCCCCCCCCCCCCC)c1OCCCCCCCCCCCCC (stereo not drawn) [DPA-034]	<1	<1	>40	>30	>50	>50
CC(C)CCCC(C)CCCC(C)CCCC(C)CCOc1ccc(C(N)c2ccc(OCCC(C)CCCC(C)CCCC(C)CCCC(C)C)cc2)cc1 (stereo not drawn) [REF-001, 4,4′-di(dihydrophytanyloxy)-benzhydrylamine, reference compound]	<1	<1	>0.1	>50	>100	>100
CC(C)CCCC(C)CCCC(C)CCCC(C)CCOc1cc(COc2ccc(C(N)c3ccccc3)cc2)cc(OCCC(C)CCCC(C)CCCC(C)CCCC(C)C)c1OCCC(C)CCCC(C)CCCC(C)CCCC(C)C (stereo not drawn) [REF-002, reference compound]	<1	<1	>0.1	>100	>100	>100
